Measured values published in ChEMBL document CHEMBL1201862, “PubChem BioAssay data set” (2004).
The source made the active and inactive calls.

Experiments:
[1] = molecular target: Protein Tat (Human immunodeficiency virus type 1 group M subtype B (isolate HXB2)(HIV-1), UniProt P04608); format: functional;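 note: tat binding to TAR RNA read out by fluorescence polarization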
[2] = inhibitors of Vif binding to APOBEC3G peptide, primary screen, biochemical, TR-FRET, GST-Vif 1-94, biotin-A3G peptide, dose response retest (AID 1117319); format: functional;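 note: TR-FRET signal of purified GST-Vif binding a biotinylated A3G peptide; inhibitors lower the FRET signal by blocking Vif and A3G binding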
[3] = molecular target: Major prion protein (Homo sapiens, UniProt P04156); format: functional, cell-based
[4] = cells
[5] = tested on: Streptococcus sp. 'group A'; assay: growth inhibition of control SK(-) GAS strain, dose response, counter-screen for streptokinase expression inhibitor project, luminescence, kanamycin, BacTiterGlo, confirmation (AID 1900); format: functional, organism-based
[6] = molecular target: T1, Streptokinase A (Streptococcus pyogenes serotype M1, UniProt P10520); assay: S. pyogenes streptokinase expression inhibitors, potency, dose response, plasminogen activation absorbance, OD405 (AID 1914); format: functional, Streptococcus pyogenes M1 GAS;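 note: secreted streptokinase activity via plasminogen activation per viability signal from cell pellet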
T1 sequence (P10520 whole entry): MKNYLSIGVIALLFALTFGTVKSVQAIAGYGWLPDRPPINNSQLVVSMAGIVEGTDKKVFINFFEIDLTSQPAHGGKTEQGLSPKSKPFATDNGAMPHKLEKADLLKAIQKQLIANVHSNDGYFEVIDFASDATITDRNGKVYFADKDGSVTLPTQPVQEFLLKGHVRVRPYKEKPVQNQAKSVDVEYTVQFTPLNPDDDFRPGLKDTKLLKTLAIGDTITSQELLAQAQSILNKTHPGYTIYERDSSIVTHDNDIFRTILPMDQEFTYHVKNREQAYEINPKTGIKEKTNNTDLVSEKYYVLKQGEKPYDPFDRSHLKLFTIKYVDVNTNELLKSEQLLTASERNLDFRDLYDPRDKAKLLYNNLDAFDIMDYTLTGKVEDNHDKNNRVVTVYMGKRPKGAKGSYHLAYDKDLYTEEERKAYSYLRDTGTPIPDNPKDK

[7] = tested on: Streptococcus; assay: Group A Streptococcus viability loss, dose response, counter-screen for streptokinase expression inhibitor project, luminescence, BacTiterGlo (AID 1915); format: functional, organism-based;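 note: potency for reduction of bacterial viability or growth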
[8] = P. falciparum late gametocyte killing, dose response, luminescence (AID 1117278); format: functional, cell-based;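 note: gametocytes exposed to compound for 24 hours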
[9] = Jurkat T cell cytotoxicity, dose response, cytotoxicity control for P. falciparum gametocyte viability project, luminescence (AID 1117277); format: functional, cell-based;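 note: potency reflects loss of cellular ATP meaning fewer viable cells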
[10] = Counterscreen for […] of the human trace amine associated receptor 1 (TAAR1): Fluorescence-based cell-based high throughput dose response assay to identify nonselective Ga16 agonists.; format: functional
[11] = molecular target: T2, Trace amine-associated receptor 1 (Homo sapiens, UniProt Q96RJ0); assay: Fluorescence-based cell-based high throughput dose response assay to identify antagonists of the human trace amine associated receptor 1 (TAAR1).; format: functional
T2 sequence (Q96RJ0 whole entry): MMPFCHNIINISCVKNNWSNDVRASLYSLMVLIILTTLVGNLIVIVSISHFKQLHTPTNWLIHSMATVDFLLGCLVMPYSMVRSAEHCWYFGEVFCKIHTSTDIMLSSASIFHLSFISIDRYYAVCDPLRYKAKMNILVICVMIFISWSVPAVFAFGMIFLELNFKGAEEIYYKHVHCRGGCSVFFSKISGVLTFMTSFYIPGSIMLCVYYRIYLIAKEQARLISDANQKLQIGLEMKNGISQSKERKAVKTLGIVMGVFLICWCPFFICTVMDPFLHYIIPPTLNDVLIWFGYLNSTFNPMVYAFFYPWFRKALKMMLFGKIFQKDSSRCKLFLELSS

[12] = Counterscreen for antagonists of the human trace amine associated receptor 1 (hTAAR1): Fluorescence-based cell-based high throughput dose response assay to identify nonselective Ga16 antagonists.; format: functional
[13] = molecular target: T2, Trace amine-associated receptor 1; assay: Counterscreen for antagonists of the human trace amine associated receptor 1 (hTAAR1): Fluorescence-based cell-based high throughput dose response assay to identify TAAR1 Agonists.; format: functional
[14] = THP-1 cell cytotoxicity, dose response, cytotoxicity control for Vif-APOBEC3G degradation inhibitor project, THP-1 cells (AID 1117359); format: functional; details: Human immunodeficiency virus 1, THP-1
[15] = molecular target: Paired box protein Pax-8 (Homo sapiens, UniProt Q06710); assay: inhibitors of PAX8-driven TPO luciferase reporter, dose response, RMG-I cells, cherry-pick (AID 687027); format: functional, cell-based;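 note: luciferase reporter driven by Pax8 target thyroperoxidase promoter measured by SteadyGlo luminescence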
[16] = A2780 ovarian cancer cell cytotoxicity, dose response, cytotoxicity control, plate reader, dry powder samples (AID 743046); format: functional, cell-based
[17] = molecular target: T3, Oxysterols receptor LXR-beta (Homo sapiens, UniProt P55055); format: functional, cell-based;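 note: Cell-based luminescence dose-response assay of agonist activity at LXR, run as a confirmatory counterscreen to a daf-12 agonist screen; HEK293 cells with Gal4-LXR fusion and GAL4-driven luciferase reporter; agonist potency from rising luciferase signal of a Gal4-LXR reporter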
T3 sequence (P55055 whole entry): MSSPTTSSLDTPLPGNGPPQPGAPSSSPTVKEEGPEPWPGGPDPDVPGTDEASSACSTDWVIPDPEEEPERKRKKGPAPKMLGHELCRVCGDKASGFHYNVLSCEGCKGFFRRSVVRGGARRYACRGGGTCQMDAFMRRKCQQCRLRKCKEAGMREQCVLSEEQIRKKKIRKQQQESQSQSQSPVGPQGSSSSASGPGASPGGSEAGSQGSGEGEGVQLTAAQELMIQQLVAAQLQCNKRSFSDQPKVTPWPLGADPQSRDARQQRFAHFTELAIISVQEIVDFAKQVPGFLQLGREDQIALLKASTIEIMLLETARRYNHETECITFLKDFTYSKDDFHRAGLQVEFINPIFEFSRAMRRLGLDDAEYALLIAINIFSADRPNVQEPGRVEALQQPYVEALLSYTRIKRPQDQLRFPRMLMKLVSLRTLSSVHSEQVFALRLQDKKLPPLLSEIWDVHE

[18] = cells; remark: listed apart in the source
[19] = HepG2 cell cytotoxicity, dose response, cytotoxicity control, plate reader, dry powder, set 6 (AID 743311); format: functional, cell-based
[20] = cells; details: HEK293
[21] = A549 cell cytotoxicity, dose response, cytotoxicity control, plate reader, dry powder, set 6 (AID 743312); format: functional, cell-based
[22] = P. falciparum 3D7-ScDHODH growth inhibitors, dose response, SYBR Green, dry powder samples (AID 1159570); format: functional, cell-based;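 note: parasite growth measured after 72 hours of compound exposure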
[23] = P. falciparum Dd2 growth inhibitors, dose response, SYBR Green, cherry-picked samples (AID 1159567); format: functional, cell-based
[24] = P. falciparum Dd2 growth inhibitors, dose response, SYBR Green, dry powder samples (AID 1159566); format: functional, cell-based;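 note: potency for growth inhibition with lower SYBR green DNA signal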
[25] = P. falciparum ATP4 D1247Y mutant growth inhibitors, dose response, NITD609-resistant line, SYBR Green, dry powder (AID 1159571); format: functional, cell-based;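 note: parasites synchronized at ring stage by sorbitol before testing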
[26] = half-maximal inhibitory concentration for glucagon-like peptide-1 release, STC-1 cell line, dose-response (AID 1117345); format: functional, cell-based
[27] = Glucagon-like peptide 1 release potency, NCI-H716 cell line, dose-response, half-maximal inhibitory concentration (AID 1117344); format: functional, cell-based

CC(=O)C1=C(O)C(=O)N(Cc2ccco2)C1c1ccc(F)cc1 (stereo not drawn)
IC50 [1]: > 100 µM (active) | IC50 [2]: > 100 µM (active)

CC(C)(C)c1nc(SCC(=O)NNC(=O)c2ccccc2)c2ccccc2n1
IC50 [3]: 5.46 µM (active) | IC50 [4]: > 138 µM (inactive)

COc1ccc2ncc(S(=O)(=O)c3ccccc3)c(N3CCN(c4ccccc4)CC3)c2c1
EC50 [5]: 9.42 µM (active) | EC50 [6]: > 150 µM (not active) | EC50 [7]: 74.8 µM (active) | IC50 [8]: > 109 µM (inactive) | IC50 [9]: > 83.3 µM (inactive)

O=[N+]([O-])c1ccc(-c2c(-c3ccccc3)ncc3ccc(F)cc23)cc1
EC50 [10]: > 29.9 µM (inactive) | IC50 [11]: 1.83 µM (active) | IC50 [12]: > 29.9 µM (inactive) | EC50 [13]: > 29.9 µM (inactive)

COc1cccc(-c2nc(CS(=O)(=O)CC(=O)NC3CC3)c(C)o2)c1
CC50 [14]: > 40 µM (active)

C[C@H]1CN([C@@H](C)CO)C(=O)Cc2cc(NC(=O)Nc3ccc(C(F)(F)F)cc3)ccc2O[C@H]1CN(C)C(=O)Nc1ccc(C(F)(F)F)cc1
AC50 [15]: 13 µM (active) | AC50 [16]: 25.8 µM (active)

Cc1ccsc1/C=N/N=C/c1sccc1C
EC50 [17]: > 67.5 µM (inactive) | EC50 [18]: > 67.5 µM (inactive)

CC(C)(C)c1ccc(OCCn2cnc3ccccc32)c(Cl)c1
AC50 [19]: 36.6 µM (active) | AC50 [20]: 37.4 µM (active)

CC(C)(C)c1ccc(OCCn2c(CO)nc3ccccc32)cc1
AC50 [21]: 20.6 µM (active) | AC50 [20]: 21.6 µM (active)

OC[C@H]1CC[C@@H]2O[C@H](CCc3ccc(C#CCc4ccccc4)cc3)[C@H](n3cc(-c4ccccc4)nn3)C[C@@H]2O1
AC50 [22]: 1.39 µM (active) | AC50 [23]: 0.739 µM (active) | AC50 [24]: 0.407 µM (active) | AC50 [25]: 0.665 µM (active)

O=c1oc2ccccc2c(O)c1C(CC(O)c1ccc(-c2ccc(Br)cc2)cc1)c1ccccc1 (stereo not drawn) [BROMODIOLONE]
IC50 [26]: 9.16 µM (inactive) | IC50 [27]: > 40 µM (inactive)
